Values of other authors as cited in US12485093B2, “Composition for use as an antiviral in the form of nasal drops and in nebulisers” (DERMOPARTNERS, S.L., priority 2021, dated 2025).

Test system: SARS-CoV-2
Conditions: concentration of 5% m/v

## OC[C@@H](O)[C@H](O)[C@@H](O)CO [xylitol]
  viricidal and antiviral activity on SARS-CoV-2: viricidal and exhibit antiviral activity
